# Source: US20260132413A1, “AROGENATE DEHYDROGENASE POLYNUCLEOTIDES, POLYPEPTIDES AND METHODS OF USING THE SAME” (Wisconsin Alumni Research Foundation, priority 2017, published 2026)
# Entries after “also recorded” stand apart in the source; their conditions may differ.
# Tests used:
# [1] = system: ADH activity of spinach leaf plastid extract; assay: Tyr sensitivity of ADH activity from plant tissue extracts; assay type: biochemical, Spinach oleracea; settings: 1 mM arogenate, 1 mM NADP+; for inhibition (%): 0.5 mM effector vs 0 mM, 2 hr
# Experimental: (§1) Spinach oleracea seeds (HighMowing, Wolcott, VT) and pink Dianthus barbatus (BloomIQ, Lansing, MI) seedlings were purchased from a nursery and were grown together with Arabidopsis thaliana (ecotype Columbia) in 22° C., 60% humidity, and 12/12 h light cycle growth chamber. Leaves of spinach and Arabidopsis seedlings were harvested at 3-week-old, and Dianthus barbatus leaves were harvested at 6-week-old. The crude extracts of Arabidopsis or Dianthus barbatus were prepared from ˜1 g leaf tissues according to Aryal et al. (2014). For spinach, ˜10 g leaf tissues were used to isolate the plastids according to Aryal et al. (2014) in order to avoid the undesired cytosolic polyphenol oxidase activity. Crude or plastid fractions were desalted by Sephadex G50 column to obtain protein extracts, and protein concentration of all biological replicates were adjusted to 0.06, 0.85, and 0.6 mg/mL for spinach, Dianthus barbatus, and Arabidopsis extracts, respectively. […] The reaction was stopped by adding 20 μL methanol containing 10 μM norvaline as an internal standard. Respective boiled protein extracts were used as negative controls. […]
# [2] = system: ADH activity of Dianthus barbatus leaf crude extract; assay: as above; assay type: biochemical; settings: 1 mM arogenate, 1 mM NADP+; for inhibition (%): 0.5 mM effector vs 0 mM, 2 hr
# Experimental: as §1
# [3] = system: ADH activity of Arabidopsis leaf crude extract; assay: as above; assay type: biochemical, Arabidopsis thaliana; settings: 1 mM arogenate, 1 mM NADP+; for inhibition (%): 0.5 mM effector vs 0 mM, 2 hr
# Experimental: as §1
# BvADHα = assay: Tyr/effector sensitivity of ADH activity of purified recombinant enzyme; assay type: biochemical, Beta vulgaris; settings: for effect of effector on ADH activity: effector at 1 mM
# Experimental: (§2) […]. The production of reduced cofactor (NADPH) was monitored at 340 nm using a spectrophotometer every two minutes for 10 min. In addition, other effectors (L-Phe, L-Trp, and betanin) were used to test possible inhibition of the enzyme ADH activity at a final concentration of 1 mM. All of the reactions were performed under non-saturated condition, where activity increased linearly depending on reaction times and enzyme concentrations.
# BvADHβ = assay: as above; assay type: biochemical, Beta vulgaris; settings: for effect of effector on ADH activity: effector at 1 mM; for inhibition of ADH activity: GST-tagged BvADHβ
# Experimental: as §2
# AtADH2 = molecular target: T1, AtADH2 (Arabidopsis thaliana, UniProt Q9LMR3); assay: Effector sensitivity of ADH activity of purified recombinant enzyme; assay type: biochemical; settings: effector at 1 mM
# T1 construct: made in house; host or cells: E. coli Rosetta-2 (pGEX-2T)
# T1 sequence (Q9LMR3 37-358): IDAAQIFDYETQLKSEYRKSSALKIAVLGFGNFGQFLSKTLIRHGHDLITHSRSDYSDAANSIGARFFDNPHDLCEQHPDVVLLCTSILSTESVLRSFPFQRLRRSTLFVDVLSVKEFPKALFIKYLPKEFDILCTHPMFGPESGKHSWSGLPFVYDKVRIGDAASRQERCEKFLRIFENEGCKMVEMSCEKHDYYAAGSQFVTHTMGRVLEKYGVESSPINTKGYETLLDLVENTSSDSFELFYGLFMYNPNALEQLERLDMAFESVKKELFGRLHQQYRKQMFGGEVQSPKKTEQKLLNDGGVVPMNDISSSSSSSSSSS
# Experimental: as §2
# SoADHα = assay: Tyr sensitivity of ADH activity of purified recombinant enzyme; assay type: biochemical, Spinacia oleracea
# Experimental: as §2
# NaADHβ = assay: as above; assay type: biochemical, Nepenthes ventricosa x alata
# Experimental: as §2
# [4] = 0.5 mM 3-fluoro-Tyr, 2 hr incubation
effect of effector on ADH activity (AtADH2),SMILES,inhibition (%) [1] [%],inhibition (%) [2],inhibition (%) [3],effect of effector on ADH activity (BvADHα),effect of effector on ADH activity (BvADHβ),also measured
,NC(Cc1ccc(O)c(F)c1)C(=O)O (centres unmarked) [3-fluoro-Tyr],20.7,95.0%,91.6%,,,"ADH activity [1, 4]: 52.7 ± 1.9 nmol/mg protein; ADH activity [2, 4]: 0.9 ± 0.2 nmol/mg protein; ADH activity [3, 4]: 7.8 ± 0.5 nmol/mg protein"
,"N[C@@H](Cc1ccc(O)cc1)C(=O)O [Tyr, L-Tyrosine]",~21,92-95%,92-95%,,,"reduction of ADH activity (BvADHα; 1 mM Tyr, GST-tagged BvADHα): half; sensitivity to Tyr (BvADHα; His-tagged BvADHα, compared with AtADH2): much less sensitivity to Tyr than AtADH2; inhibition of ADH activity (BvADHβ; 100 μM Tyr): 80%; inhibition of ADH activity (BvADHβ; 1 mM Tyr): 100%; Tyr sensitivity of ADH activity (SoADHα): reduced Tyr sensitivity; inhibition of ADH activity by Tyr (NaADHβ): strongly inhibited"
did not significantly reduce,"N[C@@H](Cc1ccccc1)C(=O)O [Phe, L-phenylalanine]",,,,did not significantly reduce,did not significantly reduce,effect of effector on ADH activity (BvADHα; listed as phenylalanine): not inhibited; effect of effector on ADH activity (BvADHβ; listed as phenylalanine): not inhibited
did not significantly reduce,O=C(O)C1=C/C(=C/C=[N+]2/c3cc(O)c(OC4OC(CO)[C@@H](O)C(O)C4O)cc3CC2C(=O)[O-])CC(C(=O)O)N1 (stereo in doubt) [betanin],,,,did not significantly reduce; also recorded: not inhibited,did not significantly reduce; also recorded: not inhibited,

SMILES,effect of effector on ADH activity (AtADH2),inhibition (%) [1] [%],inhibition (%) [2],inhibition (%) [3],effect of effector on ADH activity (BvADHα),effect of effector on ADH activity (BvADHβ),also measured
"N[C@@H](Cc1c[nH]c2ccccc12)C(=O)O [tryptophan, L-tryptophan]",did not significantly reduce,,,,did not significantly reduce; also recorded: not inhibited,did not significantly reduce; also recorded: not inhibited,
